From ChEMBL document CHEMBL1201862, “PubChem BioAssay data set” (2004)
Activity calls are given as the source filed them.

Assays:
Caspase-6 = target: T1, Caspase-6 (Homo sapiens, UniProt P55212); test: human caspase-6 inhibitors, dose response, biochemical, VEID-R110 fluorescence, cherry-pick (AID 720632)
T1 sequence (P55212 whole entry): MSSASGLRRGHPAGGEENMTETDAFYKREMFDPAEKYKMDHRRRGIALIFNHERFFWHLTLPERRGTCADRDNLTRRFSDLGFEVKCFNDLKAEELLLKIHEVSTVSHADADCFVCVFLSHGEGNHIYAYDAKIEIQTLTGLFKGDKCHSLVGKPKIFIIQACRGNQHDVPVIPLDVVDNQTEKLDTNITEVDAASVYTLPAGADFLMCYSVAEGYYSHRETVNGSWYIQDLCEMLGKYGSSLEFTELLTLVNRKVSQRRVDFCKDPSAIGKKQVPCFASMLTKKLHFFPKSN

[1] = target: T2, Histone-lysine N-methyltransferase NSD2 (Homo sapiens, UniProt O96028); assay type: biochemical
T2 sequence (O96028 whole entry): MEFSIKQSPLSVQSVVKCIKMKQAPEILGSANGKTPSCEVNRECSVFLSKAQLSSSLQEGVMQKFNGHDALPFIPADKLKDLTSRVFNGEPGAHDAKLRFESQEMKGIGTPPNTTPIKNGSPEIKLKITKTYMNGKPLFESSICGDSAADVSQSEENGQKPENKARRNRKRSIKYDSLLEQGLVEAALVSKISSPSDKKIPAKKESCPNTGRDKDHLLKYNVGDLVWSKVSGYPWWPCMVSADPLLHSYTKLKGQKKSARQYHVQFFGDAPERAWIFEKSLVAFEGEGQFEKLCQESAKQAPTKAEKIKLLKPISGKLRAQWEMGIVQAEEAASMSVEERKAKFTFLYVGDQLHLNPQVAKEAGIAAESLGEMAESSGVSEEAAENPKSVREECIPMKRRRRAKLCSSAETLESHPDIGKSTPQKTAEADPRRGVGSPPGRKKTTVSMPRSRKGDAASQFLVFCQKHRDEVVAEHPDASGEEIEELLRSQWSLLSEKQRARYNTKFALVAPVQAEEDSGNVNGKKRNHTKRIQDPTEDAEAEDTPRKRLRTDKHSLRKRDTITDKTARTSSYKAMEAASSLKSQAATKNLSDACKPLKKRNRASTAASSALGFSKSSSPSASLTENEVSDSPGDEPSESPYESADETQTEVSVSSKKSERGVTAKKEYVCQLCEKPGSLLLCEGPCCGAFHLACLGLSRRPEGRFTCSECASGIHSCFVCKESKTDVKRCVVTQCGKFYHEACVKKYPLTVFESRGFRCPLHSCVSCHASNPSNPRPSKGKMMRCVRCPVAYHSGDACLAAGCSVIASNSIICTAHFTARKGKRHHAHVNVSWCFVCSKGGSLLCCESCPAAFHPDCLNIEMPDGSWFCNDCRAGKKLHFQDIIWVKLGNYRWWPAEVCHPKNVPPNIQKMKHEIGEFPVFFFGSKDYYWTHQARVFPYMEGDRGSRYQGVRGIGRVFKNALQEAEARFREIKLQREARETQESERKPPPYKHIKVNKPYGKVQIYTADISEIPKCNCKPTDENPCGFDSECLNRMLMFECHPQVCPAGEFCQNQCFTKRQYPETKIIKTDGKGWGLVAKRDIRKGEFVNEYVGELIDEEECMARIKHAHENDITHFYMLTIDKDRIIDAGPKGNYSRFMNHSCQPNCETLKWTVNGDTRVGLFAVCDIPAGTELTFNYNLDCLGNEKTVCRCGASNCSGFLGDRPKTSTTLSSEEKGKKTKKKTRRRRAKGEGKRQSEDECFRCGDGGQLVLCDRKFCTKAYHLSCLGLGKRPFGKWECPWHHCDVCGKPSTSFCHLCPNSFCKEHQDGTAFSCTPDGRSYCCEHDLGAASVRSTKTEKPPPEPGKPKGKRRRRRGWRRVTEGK

[2] = target: T3, Beta-adrenergic receptor kinase 1 (Homo sapiens, UniProt P25098); test: aptamer displacement from bead-bound GRK2 – biochemical, cherry pick 1, bead flow cytometry, dose response (AID 504500)
T3 sequence (P25098 whole entry): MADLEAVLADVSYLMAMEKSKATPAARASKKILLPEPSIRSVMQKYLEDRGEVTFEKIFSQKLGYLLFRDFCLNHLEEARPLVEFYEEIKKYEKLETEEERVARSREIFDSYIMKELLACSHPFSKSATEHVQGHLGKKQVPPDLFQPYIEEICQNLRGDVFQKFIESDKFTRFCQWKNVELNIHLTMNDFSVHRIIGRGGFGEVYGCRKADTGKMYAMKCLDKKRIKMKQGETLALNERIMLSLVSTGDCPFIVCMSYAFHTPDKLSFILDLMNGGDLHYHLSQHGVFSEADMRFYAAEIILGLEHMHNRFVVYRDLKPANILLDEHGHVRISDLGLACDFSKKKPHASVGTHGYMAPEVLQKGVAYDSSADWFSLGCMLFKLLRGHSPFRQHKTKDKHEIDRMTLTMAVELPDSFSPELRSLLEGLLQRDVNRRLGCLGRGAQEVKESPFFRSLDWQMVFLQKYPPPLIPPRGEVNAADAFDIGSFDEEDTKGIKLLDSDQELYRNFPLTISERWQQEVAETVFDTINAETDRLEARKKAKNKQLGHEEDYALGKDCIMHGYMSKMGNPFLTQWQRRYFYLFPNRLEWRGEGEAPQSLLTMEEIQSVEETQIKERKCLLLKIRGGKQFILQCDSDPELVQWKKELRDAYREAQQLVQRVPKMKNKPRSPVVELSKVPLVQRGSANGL

[3] = target: T3, Beta-adrenergic receptor kinase 1; test: GRK2 inhibitors displacing RNA aptamer, dose response, biochemical, flow cytometry beads, FAM-aptamer, powder set 1 (AID 588720)
[4] = target: T4, Carboxy-terminal domain RNA polymerase II polypeptide A small phosphatase 1 (Homo sapiens, UniProt Q9GZU7); test: inhibitors of CTDSP1, concentration-response testing, biochemical assay, absorbance-based, actives from ultra-high-throughput screening (AID 540297); assay type: functional
T4 sequence (Q9GZU7 whole entry): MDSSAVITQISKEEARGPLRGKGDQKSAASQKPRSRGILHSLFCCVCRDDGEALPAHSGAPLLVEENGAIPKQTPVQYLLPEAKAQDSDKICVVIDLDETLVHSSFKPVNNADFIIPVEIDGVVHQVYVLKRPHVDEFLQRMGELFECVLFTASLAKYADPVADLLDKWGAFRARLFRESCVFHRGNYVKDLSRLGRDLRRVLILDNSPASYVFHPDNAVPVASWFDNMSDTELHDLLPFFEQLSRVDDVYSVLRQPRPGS

[5] = target: T5, Sentrin-specific protease 7 (Homo sapiens, UniProt Q9BQF6); assay type: functional;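 further: Luminescence-based dose-response confirmation of ultra-high-throughput screening hits, measuring inhibition of SENP7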
T5 sequence (Q9BQF6 whole entry): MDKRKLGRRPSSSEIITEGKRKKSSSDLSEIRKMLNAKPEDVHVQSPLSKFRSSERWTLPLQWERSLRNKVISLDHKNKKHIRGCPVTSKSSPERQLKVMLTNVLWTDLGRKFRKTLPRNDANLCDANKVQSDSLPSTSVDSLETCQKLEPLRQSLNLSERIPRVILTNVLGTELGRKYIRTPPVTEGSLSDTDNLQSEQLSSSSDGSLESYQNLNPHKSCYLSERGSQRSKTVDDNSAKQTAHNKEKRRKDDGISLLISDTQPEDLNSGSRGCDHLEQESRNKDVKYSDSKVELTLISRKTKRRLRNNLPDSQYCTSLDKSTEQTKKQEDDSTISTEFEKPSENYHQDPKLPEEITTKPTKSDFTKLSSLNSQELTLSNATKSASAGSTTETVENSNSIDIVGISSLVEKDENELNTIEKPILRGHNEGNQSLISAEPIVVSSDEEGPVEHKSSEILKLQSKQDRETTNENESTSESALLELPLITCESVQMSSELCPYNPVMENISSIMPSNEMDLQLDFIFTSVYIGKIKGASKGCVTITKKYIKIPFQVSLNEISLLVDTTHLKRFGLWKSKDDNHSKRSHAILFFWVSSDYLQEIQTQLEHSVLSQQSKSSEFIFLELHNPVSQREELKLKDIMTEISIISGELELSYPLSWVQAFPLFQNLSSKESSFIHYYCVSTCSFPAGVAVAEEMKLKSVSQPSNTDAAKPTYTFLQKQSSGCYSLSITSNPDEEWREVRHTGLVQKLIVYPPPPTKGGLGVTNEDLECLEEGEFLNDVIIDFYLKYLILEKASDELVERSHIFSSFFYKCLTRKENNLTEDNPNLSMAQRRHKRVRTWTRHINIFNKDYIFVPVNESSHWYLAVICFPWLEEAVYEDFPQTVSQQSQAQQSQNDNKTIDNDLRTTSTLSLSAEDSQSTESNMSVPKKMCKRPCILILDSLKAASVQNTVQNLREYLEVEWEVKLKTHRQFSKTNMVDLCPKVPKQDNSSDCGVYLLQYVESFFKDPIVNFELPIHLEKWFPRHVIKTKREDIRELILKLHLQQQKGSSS

[6] = target: T6, Sentrin-specific protease 8 (Homo sapiens, UniProt Q96LD8); assay type: functional;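 further: luminescence read-out of SENP8 inhibition, dose-response confirmation following an ultra-high-throughput screen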
T6 sequence (Q96LD8 whole entry): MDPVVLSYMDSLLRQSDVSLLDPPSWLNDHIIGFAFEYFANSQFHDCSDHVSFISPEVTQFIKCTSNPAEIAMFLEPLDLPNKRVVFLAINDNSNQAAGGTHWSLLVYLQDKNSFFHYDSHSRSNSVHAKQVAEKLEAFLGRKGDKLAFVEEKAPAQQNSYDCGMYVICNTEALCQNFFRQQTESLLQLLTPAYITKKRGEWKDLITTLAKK

A-375 [7] = test: MITF: Counter assay: A375 proliferation Measured in Cell-Based System Using Plate Reader - 2084-03_Inhibitor_Dose_DryPowder_Activity. [Related pubchem assays (depositor defined):AID488944]; assay type: functional; conditions: Homo sapiens
A-375 [8] = test: A375 melanoma cell viability reduction, dose response, counter-screen for MITF modulator project, cherry-pick samples, set 2 (AID 540335); assay type: functional, cell-based; conditions: Homo sapiens
[9] = target: T7, Sentrin-specific protease 6 (Homo sapiens, UniProt Q9GZR1); assay type: functional;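 further: Luminescence-based dose-response confirmatory assay of SENP6 inhibition, following up an ultra-high-throughput screen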
T7 sequence (Q9GZR1 whole entry): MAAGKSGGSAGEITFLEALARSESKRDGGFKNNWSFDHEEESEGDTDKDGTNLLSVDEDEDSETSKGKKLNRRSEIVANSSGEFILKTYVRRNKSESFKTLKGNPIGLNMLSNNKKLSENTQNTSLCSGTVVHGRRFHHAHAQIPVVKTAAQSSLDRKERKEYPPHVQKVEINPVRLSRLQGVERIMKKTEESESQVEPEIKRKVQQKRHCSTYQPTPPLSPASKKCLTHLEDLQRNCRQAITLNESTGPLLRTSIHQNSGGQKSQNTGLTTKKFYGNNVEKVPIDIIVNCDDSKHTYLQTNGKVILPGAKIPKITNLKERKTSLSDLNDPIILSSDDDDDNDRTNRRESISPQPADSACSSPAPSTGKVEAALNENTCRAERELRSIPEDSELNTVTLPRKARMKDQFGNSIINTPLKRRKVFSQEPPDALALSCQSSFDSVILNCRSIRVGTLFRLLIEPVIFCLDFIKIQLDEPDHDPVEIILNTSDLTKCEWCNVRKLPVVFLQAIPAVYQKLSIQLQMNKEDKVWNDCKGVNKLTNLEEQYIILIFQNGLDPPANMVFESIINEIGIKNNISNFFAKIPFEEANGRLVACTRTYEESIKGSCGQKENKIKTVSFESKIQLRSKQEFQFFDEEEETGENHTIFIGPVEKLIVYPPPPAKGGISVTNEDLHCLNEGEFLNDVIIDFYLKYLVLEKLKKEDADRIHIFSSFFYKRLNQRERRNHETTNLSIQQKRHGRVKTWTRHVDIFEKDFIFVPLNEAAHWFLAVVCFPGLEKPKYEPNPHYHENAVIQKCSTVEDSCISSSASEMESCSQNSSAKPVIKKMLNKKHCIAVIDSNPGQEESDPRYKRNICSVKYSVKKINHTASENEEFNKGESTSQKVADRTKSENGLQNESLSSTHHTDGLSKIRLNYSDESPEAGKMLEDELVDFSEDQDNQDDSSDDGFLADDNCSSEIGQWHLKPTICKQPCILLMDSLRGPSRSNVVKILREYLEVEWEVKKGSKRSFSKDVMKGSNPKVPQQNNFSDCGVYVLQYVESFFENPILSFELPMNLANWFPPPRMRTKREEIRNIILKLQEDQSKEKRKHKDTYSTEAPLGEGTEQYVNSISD

Caspase-3 = target: T8, Caspase-3 (Homo sapiens, UniProt P42574); assay type: functional;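 further: Dose-response selectivity test against caspase-3 for candidate inhibitors of sentrin-specific proteases (SENPs)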
T8 sequence (P42574 whole entry): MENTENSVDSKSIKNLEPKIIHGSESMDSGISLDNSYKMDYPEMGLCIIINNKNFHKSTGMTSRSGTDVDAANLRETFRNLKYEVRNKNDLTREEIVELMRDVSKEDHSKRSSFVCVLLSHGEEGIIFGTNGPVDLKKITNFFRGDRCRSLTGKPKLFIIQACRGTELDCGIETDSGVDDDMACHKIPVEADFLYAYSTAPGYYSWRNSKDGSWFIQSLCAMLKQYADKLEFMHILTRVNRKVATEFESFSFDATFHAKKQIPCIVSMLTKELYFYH

[10] = Luminescence Cell-Based Dose Response HTS to Identify Activators of Luciferase Translation or Activity in H4 […] Cells. [Related pubchem assays: 1829 (Project Summary), 1814 (Primary HTS)]; assay type: functional
[11] = Luminescence Cell-Based Dose Confirmation HTS to Identify Activators of 5'UTR Stem-Loop Driven Alpha-Synuclein mRNA Translation in H4 Neuroglioblastoma Cells. [Related pubchem assays: 1829 (Project Summary), 1814 (Primary HTS)]; assay type: functional
H4 = test: Luminescence Cell-Based Dose Response HTS to Identify Activators of 5'UTR Stem-Loop Driven Prion Protein mRNA Translation in H4 Neuroglioblastoma Cells. [Related pubchem assays: 1829 (Project Summary), 1814 (Primary HTS)]; assay type: functional; conditions: Homo sapiens
[12] = target: Dual specificity tyrosine-phosphorylation-regulated kinase 1A (Rattus norvegicus, UniProt Q63470); assay type: biochemical, Homo sapiens
[13] = target: FAD-linked sulfhydryl oxidase ALR (Homo sapiens, UniProt P55789); test: inhibitors of human ALR sulfhydryl oxidase, dose response, biochemical, H2O2 detection, luminescence, cherry-pick (AID 493248)
Chain of FAD-linked sulfhydryl oxidase ALR (P55789 whole entry): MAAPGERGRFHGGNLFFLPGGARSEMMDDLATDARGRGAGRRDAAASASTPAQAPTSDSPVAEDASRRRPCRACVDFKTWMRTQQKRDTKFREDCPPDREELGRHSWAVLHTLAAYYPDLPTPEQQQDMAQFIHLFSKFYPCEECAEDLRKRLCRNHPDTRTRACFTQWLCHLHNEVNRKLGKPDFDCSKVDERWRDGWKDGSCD

[14] = target: Dual specificity protein kinase CLK1 (Homo sapiens, UniProt P49759); test: CLK1 kinase inhibitors, off-target check, dose response, selectivity assay for Dyrk1A inhibitor project, biochemical, cherry-picked samples (AID 588811)
Chain of Dual specificity protein kinase CLK1 (P49759 whole entry): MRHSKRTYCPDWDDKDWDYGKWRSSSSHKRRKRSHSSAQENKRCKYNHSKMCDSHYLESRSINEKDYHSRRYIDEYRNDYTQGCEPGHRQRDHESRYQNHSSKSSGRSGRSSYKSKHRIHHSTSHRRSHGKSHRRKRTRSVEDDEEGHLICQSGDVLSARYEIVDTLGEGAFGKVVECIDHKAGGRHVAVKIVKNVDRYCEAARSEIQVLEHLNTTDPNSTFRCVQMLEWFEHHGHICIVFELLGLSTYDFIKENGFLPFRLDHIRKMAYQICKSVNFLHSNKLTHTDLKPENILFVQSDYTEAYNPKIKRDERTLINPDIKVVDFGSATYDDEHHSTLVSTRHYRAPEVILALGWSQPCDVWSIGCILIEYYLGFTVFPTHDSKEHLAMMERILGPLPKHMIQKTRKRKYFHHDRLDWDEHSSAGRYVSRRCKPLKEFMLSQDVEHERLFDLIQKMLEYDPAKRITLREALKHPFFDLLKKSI

NIH3T3 = test: cytotoxicity in NIH-3T3 fibroblasts, dose response, cytotoxicity control for antifungal drug resistance project, cell-based, Alamar Blue, fluconazole, dry powder (AID 488809); assay type: functional; conditions: Mus musculus
Escherichia coli [15] = test: microbe, parasite or virus in culture
[16] = target: Heat shock protein HSP 90-alpha (Homo sapiens, UniProt P07900); assay type: functional, organism-based
Large T antigen = Large T antigen (Simian virus 40, UniProt P03070); assay type: functional, Betapolyomavirus macacae;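 further: Confirmatory-stage PubChem screen for compounds that inhibit SV40 T antigen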
Chain of Large T antigen (P03070 whole entry): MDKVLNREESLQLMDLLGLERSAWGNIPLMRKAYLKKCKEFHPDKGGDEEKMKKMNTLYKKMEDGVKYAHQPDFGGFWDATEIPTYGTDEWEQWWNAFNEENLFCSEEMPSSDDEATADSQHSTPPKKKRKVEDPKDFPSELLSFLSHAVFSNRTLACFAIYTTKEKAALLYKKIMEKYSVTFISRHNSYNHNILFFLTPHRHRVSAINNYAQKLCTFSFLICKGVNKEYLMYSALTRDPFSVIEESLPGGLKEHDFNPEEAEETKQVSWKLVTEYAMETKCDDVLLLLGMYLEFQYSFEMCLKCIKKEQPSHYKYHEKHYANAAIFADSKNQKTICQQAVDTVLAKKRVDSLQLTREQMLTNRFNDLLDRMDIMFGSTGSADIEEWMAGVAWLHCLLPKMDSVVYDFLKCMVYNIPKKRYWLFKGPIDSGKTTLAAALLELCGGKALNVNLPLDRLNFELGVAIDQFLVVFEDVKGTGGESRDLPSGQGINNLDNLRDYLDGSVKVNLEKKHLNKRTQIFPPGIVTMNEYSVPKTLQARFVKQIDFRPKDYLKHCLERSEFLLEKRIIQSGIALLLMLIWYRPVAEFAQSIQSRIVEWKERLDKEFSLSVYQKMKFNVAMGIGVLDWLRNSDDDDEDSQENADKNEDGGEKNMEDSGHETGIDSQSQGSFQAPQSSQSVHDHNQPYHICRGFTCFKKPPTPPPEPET

Escherichia coli [17] = test: microbe, parasite or virus in culture; remark: listed apart in the source

Compound: O=C(O)Cc1ccc(-n2cccc2)cc1
- AC50 (Caspase-6): 2.7 µM (active)
- AC50 [1]: 11.9 µM (active)
- EC50 [2]: 36.2 µM (inactive)
- EC50 [3]: 3.21 µM (active)
- IC50 [4]: 4.01 µM (active)

Compound: CCOc1ccc2nc(NC(=O)Cc3cccs3)sc2c1
- IC50 [5]: 7.38 µM (active)
- IC50 [6]: 16.2 µM (active)
- AC50 (A-375 [7]): > 35 µM (active)
- AC50 (A-375 [8]): > 35 µM (active)
- IC50 [9]: 33.2 µM (active)
- IC50 (Caspase-3): 22.9 µM (active)

Compound: CC(=O)Nc1ccc(SCc2ncc(-c3ccccc3)o2)cc1
- EC50 [10]: 0.237 µM (active)
- EC50 [11]: 34.3 µM (active)
- EC50 (H4): 11.2 µM (active)
- AC50 [12]: 4.26 µM (active)
- AC50 [13]: 0.44 µM (active)
- AC50 [14]: 0.429 µM (active)

Compound: O=C(Cn1nc(-c2ccccc2)c2ccccc21)NCc1ccc(Cl)cc1
- AC50 (NIH3T3): 131 µM (active)

Compound: [O-][n+]1ccccc1S [PYRITHIONE]
- AC50 (Escherichia coli [15]): 9.06 µM (active)
- AC50 [16]: 1.01 µM (active)
- IC50 (Large T antigen): 30.3 µM (active)
- AC50 (Escherichia coli [17]): 9.47 µM (active)
- AC50 [13]: 0.432 µM (active)
